Reference: PMC11239830, “Synthetic macrolides overcoming MLSBK-resistant pathogens” (Cell Discovery, 2024)
Read-outs that look alike come from different tables or passages of the source.

How the values were obtained:
[1] = system: E. coli JW5503 ΔtolC pDualrep2; experiment: pDualrep2 dual-reporter assay; type: cell-based; details: red = Katushka2S, translation inhibitors; green = RFP, DNA damage
[2] = system: E. coli S30 extract protein synthesis; experiment: In vitro E. coli transcription/translation assay; type: biochemical; details: cell-free transcription/translation, materials from E. coli
Excerpt: The in vitro transcription/translation assay for E. coli utilized materials from the E. coli S30 extract system for circular DNA (L1020, Promega, USA). This kit contains all the necessary components for efficient transcription and translation of a user-provided DNA template. To test the inhibition of protein synthesis, the assay uses plasmid pBESTluc, which contains the firefly luciferase gene, as the DNA template. The intensity of luminescence resulting from luciferase expression corresponds to the efficiency of protein synthesis. The luminescence intensity was quantified in the presence or absence of the tested compounds. […] This experiment was repeated twice independently.

[3] = CCK-8 assay for cytotoxicity; type: cell-based, human
Protocol: (§1) HepG2 cells (6 × 10^3) and HEK293T cells (4 × 10^3) were seeded into 96-well plates in 90 μL of DMEM medium containing 10% FBS per well. All test compounds were formulated as 10 mM stock solutions in DMSO (final concentration ≤ 0.5%). After overnight incubation, the test compound stock solution was diluted with DMEM medium containing 10% FBS to every target concentration, and 10 μL of each was added to each well. Three parallel experiments were set up for each compound. After incubation for 48 h, 10 μL of cell counting kit-8 (CCK-8) reagent was added to each well in sequence according to the manufacturer’s instructions. After incubating in a 37 °C incubator for 1–2 h, the absorbance was measured at a wavelength of 450 nm, and detected by ThermoScientific Multiskan FC (ThermoFisher Scientific, USA). This experiment was independently repeated three times. The data were processed by GraphPad Prism.

[4] = system: HepG2 cells; experiment: CCK-8 assay for cytotoxicity; type: cell-based, human; details: for cytotoxicity at 5 μM: HepG2, 5 μM, 48 h
Protocol: as §1

[5] = system: HEK293T cells; experiment: CCK-8 assay for cytotoxicity; type: cell-based, human; details: 48 h; for cytotoxicity at 5 μM: HEK293T
Procedure, shortened: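 Cells seeded at 6 × 10^3 (HepG2) or 4 × 10^3 (HEK293T) per well in DMEM/10% FBS, treated after overnight culture with compound dilutions for 48 h. Viability read with CCK-8 reagent; triplicate wells, three independent repeats.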

[6] = system: human ribosome (HEK293F whole-cell lysate); experiment: Mammalian cell-free in vitro translation assay; type: biochemical; details: human ribosomes, read-out: IC50, translation of Fluc mRNA
Protocol: For the in vitro translation assay, the whole-cell extract was derived from cultured HEK293F cells. The translation reactions were conducted in a total volume of 10 μL, comprising 4 μL of the HEK293F extract, 1 μL 10× Translation Buffer containing 160 mM HEPESs-KOH (pH 7.6), 100 mM Creatine phosphate, 1 mM Spermidine, 10 mM ATP, 1 mM GTP, 20 mM DTT, 800 ng/μL CKM, 600 mM KOAc, 30 mM Mg(OAc)2 and 200 μM Amino acids. The reaction mixture also included 2 U of RiboLock RNase inhibitor (ThermoFisher Scientific), 0.5 mM D-luciferin (Promega), 1 μL of either antibiotic solution or solvent (water or 10% DMSO), as specified, and 100 ng mRNA (added as a 1 μL water solution after pre-incubation of the reaction mixture with antibiotic for 5 min at 30 °C). Following the addition of mRNA, the mixtures were transferred to a pre-heated 96-well CELL CULTER PLATE (WHB), sealed with a PCR plate seal, and incubated in the CLARIOstar plate reader (BMG Labtech) at 37 °C with continuous luciferase activity measurement, following established procedures[66],[67]. Luciferase activity values were determined based on light intensities at 60 min.

[7] = system: S. aureus; experiment: Time-kill kinetics assay; type: cell-based, Staphylococcus aureus
Protocol: To further determine the bactericidal activity of MCX-219, a time-kill assay was performed according to the method described previously. The S. aureus cultured overnight was diluted 10^4 times with CAMHB broth and incubated for 2 h. […] The number of colonies was measured at 0 h, 1 h, 3 h, 6 h, 9 h and 24 h. A flask containing bacteria left unexposed to antibiotic was used as blank control, and telithromycin was used as the positive drug (comparator drug).

[8] = In vivo pharmacokinetic study; design: species or system SD rats; details: SD (Sprague-Dawley), rat, iv, plasma
Protocol: The SD rats were fasted overnight and dosed i.v. at a dose of 5 mg/kg in a solution of DMSO/PEG 400/water (5%/24%/71%). The whole blood was collected into tubes containing sodium heparin at 0.083 h, 0.25 h, 0.5 h, 1 h, 2 h, 4 h, 8 h and 24 h after dosing. After centrifugation of 6000 rpm for 10 min at 4 °C, plasma samples were transferred into 1.5 mL tubes and stored at –20 °C. Prior to analysis, the samples were thawed on ice. An amount of 50 μL of each plasma sample was added to a mixture of 50 μL of propranolol (300 ng/mL) and 100 μL of acetonitrile and centrifuged at 12,000 rpm at 4 °C for 10 min. The supernatant was diluted and analyzed by LC-MS/MS. The liquid chromatography was conducted on a Thermo Scientific Q Exactive HF-X (ThermoFisher Scientific, USA) instrument, employing an ACQUITY UPLC BEH C18 Column with dimensions of 130 Å, 1.7 µm, 2.1 mm × 100 mm. The liquid phase method employed gradient elution with mobile phases consisting of acetonitrile and an 0.1% aqueous formic acid solution. Mass spectrometry was conducted in positive ion mode. The quantification of drug concentration in plasma samples was performed using the internal standard method, and the obtained pharmacokinetic parameters were calculated using Phoenix WinNonlin software.

[9] = human, HepG2 cells, HepG2 cell viability, 48 h, read-out: CC50

Compound	dual-reporter inhibition zone colour [1]	IC50 [2]	CC50 at 48 h [3, 9]	cytotoxicity at 5 μM [4]	CC50 (cytotoxicity) ([4]; human HepG2 and HEK293T cells)	cytotoxicity at 5 μM [5]	IC50 [6]	time-kill kinetics ([7]; constitutively erm-modified S. aureus 15B196)	time-kill kinetics ([7]; induciblely erm-modified S. aureus PU32)	CC50 at 48 h ([3]; human HepG2 and HEK293T cells, read-out: CC50 (cytotoxicity))	CC50 ([5]; HEK293T cell viability)	Cmax ([8]; male SD rats, i.v. 5 mg/kg)	MRT ([8]; male SD rats, i.v. 5 mg/kg)	Tmax ([8]; male SD rats, i.v. 5 mg/kg)	half-life ([8]; male SD rats, i.v. 5 mg/kg)	AUC(0-inf) ([8]; male SD rats, i.v. 5 mg/kg, mean ± SD, n 3)	AUC(0-t) ([8]; male SD rats, i.v. 5 mg/kg, read-out: AUC0-24)	clearance ([8]; male, 5 mg/kg)
CC[C@H]1OC(=O)[C@H](C)[C@@H](OC(=O)NCCCOCCC#Cc2ccc3c(=O)c(C(=O)O)cn(C)c3c2)[C@H](C)[C@@H](O[C@@H]2O[C@H](C)C[C@H](N(C)C)[C@H]2O)[C@](C)(OC)C[C@@H](C)C(=O)[C@H](C)[C@H]2NC(=O)O[C@@]21C [MCX-190]	red color inhibition zone	0.67 µM	> 200 µM	significantly reduced cytotoxicity compared to TcmX	essentially non-cytotoxic	significantly reduced cytotoxicity compared to TcmX	> 100 µM	–	–	–	–	–	–	–	–	–	–	–
CC[C@H]1OC(=O)[C@H](C)[C@@H](OC(=O)NCCCCCCC#Cc2ccc3c(=O)c(C(=O)O)cn(C)c3c2)[C@H](C)[C@@H](O[C@@H]2O[C@H](C)C[C@H](N(C)C)[C@H]2O)[C@](C)(OC)C[C@@H](C)C(=O)[C@H](C)[C@H]2NC(=O)O[C@@]21C [MCX-219]	red color inhibition zone	1.19 µM	28.9 ± 2.68 µM	significantly reduced cytotoxicity compared to TcmX	–	significantly reduced cytotoxicity compared to TcmX	> 100 µM	bactericidal	bacteriostatic	26 to 29 µM	26 µM	15000 ± 2810 ng/mL	1.13 ± 0.0139 h	4.8 min	3.92 ± 0.117 h	7090 ± 1360 ng·h/mL	7080 ± 1360 ng·h/mL	12.2 mL/min/kg
